Test results reported in patent US12303509B2, “Compounds for the treatment of BRAF-associated diseases and disorders” (Pfizer Inc., priority 2020, dated 2025).

How the values were obtained:
A375 cells = experiment: Cellular phospho-ERK inhibition assay in A375 cells; assay type: cell-based; conditions: A375 cells (head prints A357), 2 hours treatment, read-out: A357 cell IC50
Procedure, shortened: (§1)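 A375 (DMEM) or H1755 (RPMI) cells in 10% FBS treated 2 h at 37 °C with 9-point series, 66 pM–10 μM, 0.25% DMSO. Phospho-ERK1/2 (Thr202/Tyr204) measured by In Cell Western, normalised to GAPDH and to DMSO and 10 μM binimetinib controls; IC50 by 4-parameter fit.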

[1] = tested on: LLC-PK1 or MDCKII cell monolayer; experiment: MDR1 LLC-PK1 and BCRP MDCKII permeability assay: permeability coefficient (Papp); assay type: in vitro ADME; conditions: Papp, test concentration 1 μM, 2 hours incubation
From the text: Final organic concentration in the assay was 1%.

H1755 cells = experiment: Cellular phospho-ERK inhibition assay in H1755 cells; assay type: cell-based; conditions: 2 hours treatment, read-out: H1755 Cell IC50
Procedure, shortened: as §1

[2] = molecular target: full-length FLAG-tagged B-Raf(V600E) (Homo sapiens (Human), UniProt P15056, V600E); experiment: BRAF V600E enzyme assay (TR-FRET competitive displacement); assay type: binding; conditions: averaged IC50; TR-FRET tracer displacement, 60 min
Sequence of full-length FLAG-tagged B-Raf(V600E) (P15056 whole entry V600E): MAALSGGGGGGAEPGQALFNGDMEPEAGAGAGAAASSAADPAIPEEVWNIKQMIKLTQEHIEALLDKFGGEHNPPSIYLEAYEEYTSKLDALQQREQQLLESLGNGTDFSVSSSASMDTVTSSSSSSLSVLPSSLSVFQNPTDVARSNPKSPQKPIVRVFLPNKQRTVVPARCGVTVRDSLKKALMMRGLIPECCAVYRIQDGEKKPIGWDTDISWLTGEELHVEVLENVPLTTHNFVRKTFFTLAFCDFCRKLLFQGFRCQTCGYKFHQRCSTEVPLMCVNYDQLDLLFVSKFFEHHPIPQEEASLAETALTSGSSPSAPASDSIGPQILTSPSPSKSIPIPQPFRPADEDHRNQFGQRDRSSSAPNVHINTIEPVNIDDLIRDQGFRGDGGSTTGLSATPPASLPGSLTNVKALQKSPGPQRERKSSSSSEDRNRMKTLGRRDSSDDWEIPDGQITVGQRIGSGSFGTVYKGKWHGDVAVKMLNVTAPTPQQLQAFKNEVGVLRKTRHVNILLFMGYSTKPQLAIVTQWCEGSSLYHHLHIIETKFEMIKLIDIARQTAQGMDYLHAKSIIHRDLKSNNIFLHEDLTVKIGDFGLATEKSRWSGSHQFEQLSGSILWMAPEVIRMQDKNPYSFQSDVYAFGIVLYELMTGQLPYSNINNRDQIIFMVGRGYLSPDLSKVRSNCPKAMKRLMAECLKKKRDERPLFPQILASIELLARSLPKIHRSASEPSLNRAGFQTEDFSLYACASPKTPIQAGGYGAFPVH
Procedure, shortened: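 Displacement of 50 nM Tracer 1710 from 5 nM full-length N-terminally FLAG-tagged B-Raf(V600E), detected by TR-FRET with 0.5 nM Eu anti-FLAG antibody, in 25 mM HEPES pH 7.4, 10 mM MgCl2, 2% DMSO; 60 min at ~22 °C. Compounds 11-point, 3-fold from 10 μM; IC50 from 4-parameter fit at 50 POC.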

Row | IC50 (A375 cells) [nM] | Permeability [1] | IC50 (H1755 cells) [nM] | IC50 [2] [nM] | Compound
1 | 12 | 29 *10^−6 cm/s | 80 | 10 | CN(C)S(=O)(=O)Nc1ccc(F)c(Oc2ccc3ncn(C)c(=O)c3c2F)c1Cl [Example 111, N-(2-chloro-4-fluoro-3-((5-fluoro-3-methyl-4-oxo-3,4-dihydroquinazolin-6-yl)oxy)phenyl)-(N,N-dimethyl)-sulfamide]
2 | 24 | 28 *10^−6 cm/s | 105 | 20 | CCN(C)S(=O)(=O)Nc1ccc(F)c(Oc2ccc3ncn(C)c(=O)c3c2F)c1Cl [Example 112, N-(2-chloro-4-fluoro-3-((5-fluoro-3-methyl-4-oxo-3,4-dihydroquinazolin-6-yl)oxy)phenyl)-(N-ethyl-N-methyl)-sulfamide]
